From patent publication US12173026B2, “PRMT5 inhibitors” (Merck Sharp & Dohme LLC, priority 2018, dated 2024) come the findings set out here.

In the assay the test system is symmetric dimethylation of arginine (SDMA) of PRMT5 substrates in MCF-7 cells. The assay is described as follows: PRMT5 Cell Target Engagement (TE) Assay. Conditions: Homo sapiens, MCF7, 72 h; MCF-7 cells treated for 3 days; nuclear SDMA by high content imaging; top concentration 10000 nM. The assay is classed as cell-based. The source says:
PRMT5 Cell Target Engagement (TE) Assay
The PRMT5 TE assay is a biomarker assay for identifying compounds that inhibit symmetric dimethylation of arginine (SDMA) of PRMT5 substrates. The following substrates have been reported for PRMT5: Histone H2A and H4 R3, Histone H3 R2, Histone 1-13 R8, spliceosome Sm proteins, ribosomal protein RPS10, p53, FEN1, nucleoplasmin, nucleolin, EGFR and EBNA. The assay will focus on detecting symnetrically dimethylated nuclear proteins using high content imaging technology. Detection of the expression of symmetrically dimethylated nuclear proteins is through a mixture of primary rabbit monoclonal antibodies to SDMA (CST 13222) which in turn recognized by an Alexafluor 488 dye-conjugated anti-rabbit IgG secondary antibody. The IN Cell Analyzer 2200 or Opera-Phenix measures nuclear Alexafluor 488 fluorescent dye intensity that is directly related to the level of expression of symmetrically dimethylated nuclear proteins at the single cell level. Nuclear AF488 dye intensities are compared to the mean value for DMSO treated cells (MIN) to report percent of inhibition for each compound-treated well.
In this assay, the cell potency (EC50) of each compound was determined from a ten point (1:3 serial dilution; top compound concentration of 10000 nM) titration curve using the following outlined procedure. Each well of a BD falcon collagen coated black/clear bottom 384-well plate was seeded with 4000 MCF-7 cells in 30 pal media and allowed to attach for 5 hours. Media is ATCC-formulated Eagle's Minimum Essential Medium, Catalog No. 30-2003. The following components were added to the base medium: 0.01 mg/mL human recombinant insulin; fetal bovine serum to a final concentration of 10%. Additional 30 pal of media containing 2× compounds were added to each well. Cells were treated for 3 days in 37° C. CO2 incubator. On day 3, cells were fixed with Cytofix, permeabilized with 0.4% Triton-X-100/Cytofix, and washed with D-PBS without Ca/Mg. Cells were blocked with Licor Odessey blocking reagent for 1 hour at room temperature, followed by incubation with anti-SDMA (1:1000) antibody at 4° C. overnight. 1° antibody was removed, followed by three washings with DPBS without Ca/Mg and 0.05% Tween20. Hoechst (5 μg/mL), Cell Mask deep stain (1:2000) and Alexa488-conjugated goat anti-rabbit IgG (2 μg/mL) was added for 1 hour at room temperature. A final washing step (three washes) was performed before sealing plate for imaging on in Cell Analyzer 2200 or Opera-Phenix. Images from analyzer were uploaded to Columbus for image analysis. IC50 values were determined by 4 parameters robust fit of percent fluorescence units vs. (Log 10) compound concentrations.
Regarding `Cc1nc(N)c2ccn([C@@H]3C[C@@H]4[C@H](Cc5ccc6cc(Cl)c(N)nc6c5)CC[C@]4(O)[C@H]3O)c2n1` [Example 31, (1S,2R,3aR,4S,6aR)-2-(4-amino-2-methyl-7H-pyrrolo[2,3-d]pyrimidin-7-yl)-4-((2-amino-3-chloroquinolin-7-yl)methyl) hexahydropentalene-1,6a(1H)-diol 2,2,2-trifluoroacetate], the EC50 (as a rule, the midpoint of the concentration-response curve) amounted to 0.8 nM.

`Cc1nc(N)c2ccn([C@@H]3C[C@@H]4[C@H](Cc5ccc6cc(F)c(N)nc6c5)CC[C@]4(O)[C@H]3O)c2n1` [Example 32, (1S,2R,3aR,4S,6aR)-2-(4-amino-2-methyl-7H-pyrrolo[2,3-d]pyrimidin-7-yl)-4-((2-amino-3-fluoroquinolin-7-yl)methyl) hexahydropentalene-1,6a(1H)-diol 2,2,2-trifluoroacetate] came in with an EC50 of 0.8 nM.

As for `Nc1nc2cc(C[C@@H]3CC[C@@]4(O)[C@@H]3C[C@@H](n3cc(F)c5c(N)ncnc53)[C@@H]4O)ccc2cc1F` [Example 33, (1S,2R,3aR,4S,6aR)-4-((2-amino-3-fluoroquinolin-7-yl)methyl)-2-(4-amino-5-fluoro-7H-pyrrolo[2,3-d]pyrimidin-7-yl)hexahydropentalene-1,6a(1H)-diol], the EC50 came out at 0.4 nM.

`Nc1nc2cc(C[C@@H]3CC[C@@]4(O)[C@@H]3C[C@@H](n3cc(F)c5c(N)ncnc53)[C@@H]4O)ccc2cc1Cl` [Example 34, (1S,2R,3aR,4S,6aR)-4-((2-amino-3-chloroquinolin-7-yl)methyl)-2-(4-amino-5-fluoro-7H-pyrrolo[2,3-d]pyrimidin-7-yl)hexahydropentalene-1,6a(1H)-diol] yielded an EC50 of 0.3 nM.

Consider `Cc1cn([C@@H]2C[C@@H]3[C@H](Cc4cc(F)c5cc(F)c(N)nc5c4)CC[C@]3(O)[C@H]2O)c2ncnc(N)c12` [Example 35, (1S,2R,3aR,4S,6aR)-4-[(2-amino-3,5-difluoroquinolin-7-yl)methyl]-2-(4-amino-5-methyl-7H-pyrrolo[2,3-d]pyrimidin-7-yl)hexahydropentalene-1,6a(1H)-diol], for which the midpoint of the response, the EC50, lay at 0.8 nM.

`Cc1cn([C@@H]2C[C@@H]3[C@H](Cc4cc(F)c5cc(Cl)c(N)nc5c4)CC[C@]3(O)[C@H]2O)c2ncnc(N)c12` [Example 36, (1S,2R,3aR,4S,6aR)-4-[(2-amino-3-chloro-5-fluoroquinolin-7-yl)methyl]-2-(4-amino-5-methyl-7H-pyrrolo[2,3-d]pyrimidin-7-yl)hexahydropentalene-1,6a(1H)-diol] displayed an EC50 of 1.4 nM.

Molecule `Cc1nc(N)c2ccn([C@@H]3C[C@@H]4[C@H](Cc5ccc6cc(Br)c(N)nc6c5)CC[C@]4(O)[C@H]3O)c2n1` [Example 37, (1S,2R,3aR,4S,6aR)-2-(4-amino-2-methyl-7H-pyrrolo[2,3-d]pyrimidin-7-yI)-4-((2-amino-3-bromoquinolin-7-yl)methyl)hexahydropentalene-1,6a(1H)-diol] yielded an EC50 of 0.6 nM.

In the case of `Cc1cn([C@@H]2C[C@@H]3[C@H](Cc4ccc5cc(F)c(N)nc5c4)CC[C@]3(O)[C@H]2O)c2ncnc(N)c12` [Example 38, (1S,2R,3aR,4S,6aR)-4-((2-amino-3-fluoroquinolin-7-yl)methyl)-2-(4-amino-5-methyl-7H-pyrrolo[2,3-d]pyrimidin-7-yl)hexahydropentaiene-1,6a(1H)-diol], a half-maximal effect (EC50) was put at 0.6 nM.

In turn, `Cc1cn([C@@H]2C[C@@H]3[C@H](Cc4ccc5cc(Cl)c(N)nc5c4)CC[C@]3(O)[C@H]2O)c2ncnc(N)c12` [Example 39, (1S,2R,3aR,4S,6aR)-4-((2-amino-3-chloroquinolin-7-yl)methyl)-2-(4-amino-5-methyl-7H-pyrrolo[2,3-d]pyrimidin-7-yl)hexahydropentalene-1,6a(1H)-diol] came in with an EC50 of 0.3 nM.

Molecule `Cc1cn([C@@H]2C[C@@H]3[C@H](Cc4ccc5cc(Br)c(N)nc5c4)CC[C@]3(O)[C@H]2O)c2ncnc(N)c12` [Example 40, (1S,2R,3aR,4S,6aR)-4-((2-amino-3-bromoquinolin-7-yl)methyl)-2-(4-amino-5-methyl-7H-pyrrolo[2,3-d]pyrimidin-7-yl)hexahydropentalene-1,6a(1H)-diol] registered an EC50 of 0.7 nM.

Consider `Nc1nc2cc(C[C@@H]3CC[C@@]4(O)[C@@H]3C[C@@H](n3ccc5c(N)ncnc53)[C@@H]4O)ccc2cc1Br` [Example 41, (1S,2R,3aR,4S,6aR)-4-((2-amino-3-bromoquinolin-7-yl)methyl)-2-(4-amino-7H-pyrrolo[2,3-d]pyrimidin-7-yl)hexahydropentalene-1,6a (1H)-diol 2,2,2-trifluoroacetate], for which the EC50 was found to be 2.9 nM.

For the molecule `Nc1nc2cc(C[C@@H]3CC[C@@]4(O)[C@@H]3C[C@@H](n3cc(F)c5c(N)ncnc53)[C@@H]4O)ccc2cc1Br` [Example 42, (1S,2R,3aR,4S,6aR)-4-((2-amino-3-bromoquinolin-7-yl)methyl)-2-(4-amino-5-fluoro-7H-pyrrolo[2,3-d]pyrimidin-7-yl)hexahydropentalene-1,6a(1H)-diol], the EC50 came to 0.3 nM.

With `Nc1nc2cc(C[C@@H]3CC[C@@]4(O)[C@@H]3O[C@@H](n3cc(C(F)F)c5c(N)ncnc53)[C@@H]4O)ccc2cc1Br` [Example 43, (2R,3R,3aS,6S,6aR)-6-[(2-amino-3-bromoquinolin-7-yl)methyl]-2-[4-amino-5-(difluoromethyl)-7H-pyrrolo[2,3-d]pyrimidin-7-yl]hexahydro-3aH-cyclopenta[b]furan-3,3a-diol], the midpoint of the response, the EC50, lay at 1 nM.

For the molecule `Cc1nc(N)c2c(F)cn([C@@H]3O[C@@H]4[C@H](Cc5ccc6cc(F)c(N)nc6c5)CC[C@]4(O)[C@H]3O)c2n1` [Example 44, (2R,3R,3aS,6S,6aR)-6-((2-amino-3-fluoroquinolin-7-yl)methyl)-2-(4-amino-5-fluoro-2-methyl-7H-pyrrolo[2,3-d]pyrimidin-7-yl)hexahydro-3aH-cyclopenta[b]furan-3,3a-diol 2,2,2-trifluoroacetate], the EC50 came out at 8.8 nM.

Consider `Nc1nc2cc(C[C@@H]3CC[C@@]4(O)[C@@H]3O[C@@H](n3ccc5c(N)nc(F)nc53)[C@@H]4O)ccc2cc1F` [Example 45, (2R,3R,3aS,6S,6aR)-2(4-amino-2-fluoro-7H-pyrrolo[2,3-d]pyrimidin-7-yl)-6-((2-amino-3-fluoroquinolin-7-yl)methyl)hexahydro-3aH-cyclopenta[b]furan-3,3a-diol], for which a half-maximal effect (EC50) was put at 1.2 nM.

`Nc1nc2cc(C[C@@H]3CC[C@@]4(O)[C@@H]3O[C@@H](n3ccc5c(N)nc(Cl)nc53)[C@@H]4O)ccc2cc1Cl` [Example 47, (2R,3R,3aS,6S,6aR)-2-(4-amino-2-chloro-7H-pyrrolo[2,3-d]pyrimidin-7-yl)-6-[(2-amino-3-chloroquinolin-7-yl)methyl]hexahydro-3aH-cyclopenta[b]furan-3,3a-diol] gave an EC50 of 1.4 nM.

`Nc1nc2cc(C[C@@H]3CC[C@@]4(O)[C@@H]3O[C@@H](n3ccc5c(N)nc(Cl)nc53)[C@@H]4O)ccc2cc1F` [Example 48, (2R,3R,3aS,6S,6aR)-2-(4-amino-2-chloro-7H-pyrrolo[2,3-d]pyrimidin-7-yl)-6-[(2-amino-3-fluoroquinolin-7-yl)methyl]hexahydro-3aH-cyclopenta[b]furan-3,3a-diol] showed an EC50 of 1.7 nM.

The molecule `Nc1nc2cc(O[C@H]3CC[C@@]4(O)[C@@H]3O[C@@H](n3cc(-c5ccccc5)c5c(N)ncnc53)[C@@H]4O)ccc2cc1Br` [Example 49, (2R,3R,3aS,6S,6aR)-6-[(2-amino-3-bromoquinolin-7-yl)oxy]-2-(4-amino-5-phenyl-7H-pyrrolo[2,3-d]pyrimidin-7-yl)hexahydro-3aH-cyclcopenta[b]furan-3,3a-diol] displayed an EC50 of 13 nM.

On to `Nc1nc2cc(C[C@@H]3CC[C@@]4(O)[C@@H]3O[C@@H](n3cc(C(F)F)c5c(N)ncnc53)[C@@H]4O)ccc2cc1F` [Example 51, (2R,3R,3aS,6S,6aR)-2-[4-amino-5-(difluoromethyl)-7H-pyrrolo[2,3-d]pyrimidin-7-yl]-6-[(2-amino-3-fluoroquinolin-7-yl)methyl]hexahydro-3aH-cyclopenta[b]furan-3,3a-diol], for which a half-maximal effect (EC50) was put at 2.8 nM.

The molecule `Nc1nc2cc(O[C@H]3CC[C@@]4(O)[C@@H]3O[C@@H](n3cc(C5CC5)c5c(N)ncnc53)[C@@H]4O)ccc2cc1Br` [Example 52, (2R,3R,3aS,6S,6aR)-6-[(2-amino-3-bromoquinolin-7-yl)oxy]-2-(4-amino-5-cyclopropyl-7H-pyrrolo[2,3-d]pyrimidin-7-yl)hexahydro-3aH-cyclopenta[b]furan-3,3a-diol] returned an EC50 of 75.5 nM.
